This passage reports IC50 results from patent US6075044A, “Heterocyclic derivatives as inhibitors of purine salvage phosphoribosyltransferases” (The Regents of the University of California, priority 1998, dated 2000).

pIC50: −log10 of the molar value. Like-named read-outs stand apart in the source and are kept apart here.

Holding throughout (type): biochemical
The target of one experiment is T1, Human HGPRTase (Homo sapiens, UniProt P00492).
T1 sequence (P00492 1-218): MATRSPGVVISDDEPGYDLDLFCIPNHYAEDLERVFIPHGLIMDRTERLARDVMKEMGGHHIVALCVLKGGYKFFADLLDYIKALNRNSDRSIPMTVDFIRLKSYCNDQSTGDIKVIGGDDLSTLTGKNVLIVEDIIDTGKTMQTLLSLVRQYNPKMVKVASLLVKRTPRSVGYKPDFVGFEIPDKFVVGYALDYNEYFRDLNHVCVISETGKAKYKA
The experiment can be described thus: Enzyme assay, [14C]-guanine to GMP conversion, human HGPRTase. The note with it: recombinant enzyme, 10% DMSO, 37° C., 5 min, pH 6.8, read-out: IC50 HH (Human HGPRTase). As for the experimental part:
(§1) Protocol For Testing Compounds of Formula I Against Tritrichomonas foetus HGXPRTase, Giardia lamblia GPRTase and Human HGPRTase
(§2) The enzyme assay mixture, in a final volume of 20 μl, consisted of the following:
(§3) Bis-Tris-HCl, pH 6.8 0.3 M
(§4) 5-Phospho-1-ribosylpyrophosphate 0.1 mM
(§5) [^14 C]-guanine (46 mCi/mmole) 22 μM
(§6) Thus, all the assay mixtures contain 10% DMSO.
(§7) The recombinant enzyme, purified to homogeneity in the native form, was diluted in a buffer solution of 50 mM Bis-Tris-HCl, pH 6.8, 6 mM MgCl2, and 1 mM dithiothreitol to a final concentration of 34 μg enzyme protein per ml. […] enzyme solution was added to the 20 μl reaction mixture, and maintained at 37° C., to start the enzyme-catalyzed reaction. The reaction was allowed to proceed at 37° C. for exactly 5 min, and then stopped by adding 23 μl of 1 mM guanine and 1 mM GMP to the reaction mixture.
(§8) Twenty μl of the final mixture was spotted on a polyethyleneimine-cellulose thin layer plate and chromatographed with 5 mM ammonium acetate pH 5.0. The unreacted [^14 C]-guanine migrated at the forefront of the chromatography with an Rf value of 0.62, whereas the product [^14 C]-GMP remained at the origin due to the negative charge of the molecule at pH 5.0. The spots of guanine and GMP were cut out from the plate, and the radioactivity in each spot measured with a Beckman LS-3801 scintillation counter. The radioactivities associated with the GMP and diminished from the guanine sample were used to calculate the amount of substrate converted to product within a unit time period.
(§9) Protocol For Testing Compounds of Formula II Against Tritrichomonas foetus HGXPRTase Giardia lamblia GPRTase and Human HGPRTase
(§10) The recombinant enzyme, purified to homogeneity in the native form, was diluted in a buffer solution of 50 mM Bis-Tris-HCl, pH 6.8, 6 mM MgCl2, and 1 mM dithiothreitol to a final concentration of 34 μg enzyme protein per ml. Two and one half μl of the diluted enzyme solution was added to the 20 μl reaction mixture, and maintained at 37° C., to start the enzyme-catalyzed reaction. The reaction was allowed to proceed at 37° C. for exactly 5 min, and then stopped by adding 23 μl of 1 mM guanine and 1 mM GMP to the reaction mixture.

The next experiment concerns the target T2, HGXPRTase from T. foetus (Tritrichomonas foetus, UniProt P51900).
T2 construct: made in house; host or cells: Escherichia coli
T2 sequence (P51900 1-183): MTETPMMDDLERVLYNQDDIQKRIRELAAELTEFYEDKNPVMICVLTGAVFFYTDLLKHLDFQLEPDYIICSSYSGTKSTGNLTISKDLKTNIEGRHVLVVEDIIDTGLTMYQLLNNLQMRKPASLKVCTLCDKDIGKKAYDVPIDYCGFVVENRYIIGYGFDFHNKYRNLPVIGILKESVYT
Briefly: Enzyme assay, [14C]-guanine to GMP conversion, T. foetus HGXPRTase. The note with it: read-out: IC50 TFH (HGXPRTase from T. foetus). The procedure:
as §1, §2, §3, §4, §5, §6, §7, §8, §9, §10

The target in a further experiment is T3, GPRTase from G. lamblia (Giardia duodenalis, UniProt Q24973).
T3 sequence (Q24973 1-230): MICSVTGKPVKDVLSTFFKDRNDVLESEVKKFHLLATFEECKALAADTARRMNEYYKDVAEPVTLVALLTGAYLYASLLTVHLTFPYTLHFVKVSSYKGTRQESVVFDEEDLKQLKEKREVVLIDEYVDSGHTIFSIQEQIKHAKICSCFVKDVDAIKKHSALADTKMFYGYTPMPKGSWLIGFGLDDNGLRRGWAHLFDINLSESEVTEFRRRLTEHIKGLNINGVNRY
The experiment can be described thus: Enzyme assay, [14C]-guanine to GMP conversion, G. lamblia GPRTase. The note with it: recombinant enzyme, 10% DMSO, 37° C., 5 min, pH 6.8, read-out: IC50 GLG (GPRTase from G. lamblia). As for the experimental part:
as §1, §2, §3, §4, §5, §6, §7, §8, §9, §10

[1] abbreviates: Table 4, compounds of Formula II.
Where [2] appears, read: Table 4, compounds of Formula II, recombinant enzyme, 10% DMSO, 37° C., 5 min, pH 6.8.
Setting [3] is: Table 2, compounds of Formula I.
The mark [4] stands for this setting: Table 2, compounds of Formula I, recombinant enzyme, 10% DMSO, 37° C., 5 min, pH 6.8.

For orientation: pIC50 means −log10 of the IC50, conventionally taken in molar units. In the case of `O=C(Nc1ccc2c(c1)C(=O)OC2)c1ccc(Cl)cc1` [(II)7, 5-[N-(4-chlorophenyl)carbonylamino]-3-isobenzofuranone], the pIC50 at Human HGPRTase (setting [1]) is below 3.00; on HGXPRTase from T. foetus (setting [2]) it was 3.42; on GPRTase from G. lamblia (setting [1]) it was below 3.00.
Take `O=C(Nc1ccc(Cl)cc1Cl)c1ccc2c(c1)C(=O)OC2=O` [(II)5, 5-[N-(2,4-dichlorophenyl)carbamoyl]-1,3-isobenzofurandione]: the pIC50 at Human HGPRTase (setting [1]) is below 3.00; at HGXPRTase from T. foetus (setting [2]) it was 4.10; on GPRTase from G. lamblia (setting [1]), 3.70.
As for `O=C(COc1ccc([N+](=O)[O-])cc1)NN=C1C(=O)Nc2ccccc21` [(I)8], the pIC50 at Human HGPRTase (setting [3]) was below 3.00; at HGXPRTase from T. foetus (setting [4]), 3.74; at GPRTase from G. lamblia (setting [3]), below 3.00.
`O=C(Nc1ccc(Cl)c(Cl)c1)c1ccc2c(c1)C(=O)OC2=O` [(II)3, 5-[N-(3,4-dichlorophenyl)carbamoyl]-1,3-isobenzofurandione]: the pIC50 was below 3.00 on Human HGPRTase (setting [1]), 4.30 on HGXPRTase from T. foetus and 4.52 at GPRTase from G. lamblia (setting [1]).
As for `O=C1Nc2ccccc2C1=NN=Cc1ccc([N+](=O)[O-])cc1` [(I)2, 3-(4-nitrophenylidenehydrazono)-1,3-dihydroindol-2-one], the pIC50 is below 3.00 on Human HGPRTase (setting [3]), 4.30 at HGXPRTase from T. foetus (setting [4]) and below 3.00 at GPRTase from G. lamblia (setting [3]).
In the case of `COc1ccc(CC(=O)N/N=C2\C(=O)Nc3ccc(Br)cc32)cc1OC` [(I)10, 3-[(3,4-dimethoxyphenyl)acetylhydrazono]-5-bromo-1,3-dihydroindol-2-one], the pIC50 is below 3.00 on Human HGPRTase (setting [3]), 3.49 at HGXPRTase from T. foetus (setting [4]) and 4.05 on GPRTase from G. lamblia (setting [3]).
For the molecule `O=C1Nc2ccccc2C1=NN=Cc1ccc(Cl)cc1` [(I)3, 3-(4-chlorophenylidenehydrazono)-1,3-dihydroindol-2-one], the values for the pIC50 on Human HGPRTase (setting [3]), on HGXPRTase from T. foetus (setting [4]) and at GPRTase from G. lamblia (setting [3]) were below 3.00, 3.77 and below 3.00, respectively.
For `O=C1Nc2ccccc2C1=NNc1ccc([N+](=O)[O-])cc1` [(I)1, 3-(4-nitrophenylhydrazono)-1,3-dihydroindol-2-one], the pIC50 at Human HGPRTase (setting [3]) is 3.70; on HGXPRTase from T. foetus (setting [4]), 3.62; at GPRTase from G. lamblia (setting [3]), below 3.00.
Consider `O=C1Nc2ccccc2C1=NN=Cc1cc(Br)ccc1O` [(I)5, 3-(2-hydroxy-5-bromophenylidenehydrazono)-1,3-dihydroindol-2-one], for which the pIC50 at Human HGPRTase (setting [3]) is below 3.00; at HGXPRTase from T. foetus (setting [4]), 3.34; at GPRTase from G. lamblia (setting [3]), below 3.00.
As to `O=C1NC(=O)c2cc([N+](=O)[O-])c(SCc3ccc(Cl)cc3)cc21` [(II)8, 5-[N-(4-chlorophenyl)methylthio]-6-nitrophthalimide], the results for the pIC50 at Human HGPRTase (setting [1]), on HGXPRTase from T. foetus (setting [2]) and at GPRTase from G. lamblia (setting [1]) were below 3.00, 3.37 and below 3.00, respectively.
Take `COc1ccc(Cl)cc1NC(=O)c1ccc2c(c1)C(=O)OC2=O` [(II)6, 5-[N-(2-methoxy-5-chlorophenyl)carbamoyl]-1,3-isobenzofurandione]: the values for the negative-log IC50 (pIC50) on Human HGPRTase (setting [1]), at HGXPRTase from T. foetus (setting [2]) and on GPRTase from G. lamblia (setting [1]) were below 3.00, 4.66 and 3.12, respectively.
Taken in the same sequence, the figures for `CC(=O)Nc1ccc(NC(=O)c2ccc3c(c2)C(=O)OC3=O)cc1` [(II)2, 5-[N-(4-acetamidophenyl)carbamoyl]-1,3-isobenzofurandione] were below 3.00, 3.85 and below 3.00.
On the same counts, the results for `COc1ccc([N+](=O)[O-])cc1NC(=O)c1ccc2c(c1)C(=O)OC2=O` [(II)4, 5-[N-(2-methoxy-5-nitrophenyl)carbamoyl]-1,3-isobenzofurandione] are below 3.00, 4.15 and 3.30.
Turning to `O=C1Nc2ccccc2C1=NN=Cc1cc(Cl)cc(Cl)c1O` [(I)4, 3-(2-hydroxy-3,5-dichlorophenylidenehydrazono)-1,3-dihydroindol-2-one], the pIC50 on HGXPRTase from T. foetus (setting [4]) and on GPRTase from G. lamblia (setting [3]) was below 3.00 throughout.
Consider `CC(Oc1ccc(Cl)cc1Cl)C(=O)NN=C1C(=O)Nc2ccc(Br)cc21` (centres unmarked) [(I)9, 3-[2-(2,4-dichlorophenoxy)propanoylhydrazono]-5-bromo-1,3-dihydroindol-2-one], for which the pIC50 on Human HGPRTase (setting [3]) is below 3.00; at HGXPRTase from T. foetus (setting [4]) it was 4.07; at GPRTase from G. lamblia (setting [3]), 4.52.
Turning to `O=C(Nc1cccc([N+](=O)[O-])c1)c1ccc2c(c1)C(=O)OC2=O` [(II)1, 5-[N-(3-nitrophenyl)carbamoyl]-1,3-isobenzofurandione], the results for the pIC50 on Human HGPRTase (setting [1]), on HGXPRTase from T. foetus (setting [2]) and at GPRTase from G. lamblia (setting [1]) were below 3.00, 3.52 and below 3.00, respectively.
As for `O=C1Nc2ccc(Br)cc2C1=NN=Cc1ccc(Cl)c(Cl)c1` [(I)6, 3-(3,4-dichlorophenylidenehydrazono)-5-bromo-1,3-dihydroindol-2-one], the figures for the pIC50 on Human HGPRTase (setting [3]), on HGXPRTase from T. foetus (setting [4]) and at GPRTase from G. lamblia (setting [3]) were below 3.00, 3.52 and below 3.00, respectively.
As to `COc1ccc(CCNC=C2C(=O)Nc3ccccc32)cc1` [(I)7], the pIC50 was below 3.00 on Human HGPRTase (setting [3]), 3.70 at HGXPRTase from T. foetus (setting [4]) and below 3.00 at GPRTase from G. lamblia (setting [3]).
